In brackets after ≈: the same amount, converted by molar mass. Like-named read-outs stand apart in the source and are kept apart here.
Experiments:
[1] = system: lipoprotein lipase (LPL) gene; experiment: LPL mRNA elevating action (RT-PCR quantification of LPL mRNA in C2Cl2 cells); assay type: cell-based, mouse; settings: compound 10 μM, ratio relative to the amount of LPL mRNA in cells with DMSO only; for fold induction at 10 µM: Mus musculus, 24 h, read-out: Rate of increase in LPL mRNA
Description: LPL mRNA Elevating Action
C2Cl2 cells (cell strain derived from striated muscle of mouse) were seeded in 96-well plates using a DMEM medium (Gibco) (containing 2 mM L-glutamine and 10% fetal bovine serum). After the cells were grown, the medium was removed. Subsequently, media obtained by adding dimethyl sulfoxide (DMSO) solutions of the compounds to the same medium as described above to a concentration of 10 μM were individually added to the cells and allowed to stand for 24 hours. The compound-containing media were removed, and the plates were washed with phosphate buffered saline. Thereafter, the remaining cells were lysed and subjected to a reverse transcription polymerase chain reaction (RT-PCR reaction) to obtain cDNA. Primers specific to lipoprotein lipase (LPL) gene, a necessary enzyme, etc., were added to the obtained cDNA. The mixture was set in 7500 Fast Real Time PCR System produced by Applied Biosystem to perform a PCR reaction (20 cycles) and the amount of LPL mRNA amplified was quantified. The LPL mRNA elevating action of each compound in the test cells was indicated as the ratio relative to the amount of LPL mRNA in cells allowed to stand in a medium to which only DMSO was added, with the amount being defined as 1.
As Comparative Example 1, a test was performed in the same manner as above, using a compound disclosed as the compound of Example 57 in WO2010/090200.

[2] = Solubility in gastric juice or intestinal juice model fluid (precipitation method using DMSO); assay type: physicochemical; settings: room temperature; for Solubility (μg/mL) 1st fluid / Solubility (μg/mL) 2nd fluid: 24 hours
How it was run: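 Compound in DMSO added to JP disintegration test fluid 1 (pH 1.2) or fluid 2 (pH 6.8) and shaken 24 h at room temperature. After filtration, dissolved concentration (μg/mL) determined by UV absorbance against compound calibration curves.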

[3] = pH 1.2, simulated gastric fluid, kinetic from dmso stock, 1st fluid for Disintegration Test of Japanese Pharmacopoeia (pH: 1.2), read-out: Solubility (μg/mL) 1st fluid
[4] = pH 6.8, kinetic from dmso stock, 2nd fluid for Disintegration Test of Japanese Pharmacopoeia (pH: 6.8), read-out: Solubility (μg/mL) 2nd fluid
[5] = 1st fluid for Disintegration Test of Japanese Pharmacopoeia (pH: 1.2)
[6] = 2nd fluid for Disintegration Test of Japanese Pharmacopoeia (pH: 6.8)

Compound | fold induction at 10 µM [1] | solubility at 24 h [2, 3] | solubility at 24 h [2, 4] | Rate of increase in LPL mRNA ([1]; 24 hours) | Solubility (μg/mL) 1st fluid [2, 5] | Solubility (μg/mL) 2nd fluid [2, 6] | melting point
COc1cc(OCc2ccc(C(F)(F)F)nc2)ccc1-c1cnc(C2CCC(F)(F)C2)[nH]1 (stereo not shown) [Example 3] | 2.48 | 87.5 µg/mL (≈ 193 µM) | 1 µg/mL (≈ 2.21 µM) | – | – | – | –
COc1cc(OCc2ccc(C(F)(F)F)nc2)c(C)cc1-c1cnc(C2CCC(F)(F)CC2)[nH]1 [Example 12] | 2.23 | 15.6 µg/mL (≈ 32.4 µM) | < 1.7 µg/mL | – | – | – | –
COc1c(OCc2ccc(C(F)(F)F)nc2)ccc(-c2cnc(C3CCC(F)(F)CC3)[nH]2)c1OC [Example 14] | 5.42 | > 99 µg/mL | < 0.4 µg/mL | – | – | – | –
COc1cc(OCc2ccc(C(F)(F)F)nc2)ccc1-c1nc(C2CCCCC2)[nH]c1C [Example 48] | 3.02 | > 89 µg/mL | 80.8 µg/mL (≈ 181 µM) | – | – | – | –
COc1cc(-c2c[nH]c(C3CCCCCC3)n2)ccc1OCc1ccc(C(F)(F)F)cn1 [Example 72] | 2.75 | > 116 µg/mL | 1.8 µg/mL (≈ 4.04 µM) | – | – | – | –
COc1cc(OCc2ncc(Br)cc2F)ccc1-c1cnc(-c2ccc(F)nc2)[nH]1 [Example 111, 5-bromo-3-fluoro-2-[[4-(2-(6-fluoropyridin-3-yl)-1H-imidazol-5-yl)-3-methoxyphenoxy]methyl]pyridine] | 2.46 | 9.4 µg/mL (≈ 19.9 µM) | 1.2 µg/mL (≈ 2.54 µM) | – | – | – | –
COc1cc(OC(C)c2ccc(C(F)(F)F)cn2)ccc1-c1c[nH]c(-c2ccc(F)nc2)n1 (stereo not shown) [Example 117] | 3.38 | 80.2 µg/mL (≈ 175 µM) | 2.6 µg/mL (≈ 5.67 µM) | – | – | – | –
COc1cc(OC(C)c2ncc(Br)cc2F)ccc1-c1cnc(-c2ccc(F)nc2)[nH]1 (stereo not shown) [Example 128] | 2.28 | 94.9 µg/mL (≈ 195 µM) | 4 µg/mL (≈ 8.21 µM) | – | – | – | –
COc1cc(OCc2ncc(Cl)cc2C(F)(F)F)ccc1-c1cnc(-c2ccc(F)nc2)[nH]1 [Example 138] | 2.97 | – | – | – | – | – | –
COc1cc(OCc2ccc(C(F)(F)F)cn2)ccc1-c1nc(-c2ccc(Cl)nc2)n(CC2CC2)c1C [Example 156] | 3.27 | 104 µg/mL (≈ 197 µM) | 3.6 µg/mL (≈ 6.81 µM) | – | – | – | –
COc1cc(-c2[nH]c(C3CCCC(F)(F)C3)nc2Br)ccc1OCc1ccc(C(F)(F)F)cn1 (stereo not shown) [Example 171] | – | – | – | 2.89 | >109 µg/mL | <1.9 µg/mL | –
COc1cc(OCc2cnc(C)cn2)ccc1-c1nc(-c2ccc(Cl)nc2)[nH]c1Cl [Example 219] | 2.42 | 7.5 µg/mL (≈ 17 µM) | < 1.6 µg/mL | – | – | – | –
COc1cc(OCc2ccc(C(F)(F)F)cn2)ccc1-c1nc(-c2ccc(F)nc2)[nH]c1Br [Example 223] | – | > 105 µg/mL | < 0.4 µg/mL | – | – | – | 176 to 178 °C
COc1cc(OCc2ccc(C(F)(F)F)nc2)ccc1-c1nc(-c2ccc(F)cn2)[nH]c1Cl [Example 226] | – | < 8.5 µg/mL | 3.4 µg/mL (≈ 7.1 µM) | – | – | – | 186 to 193 °C (dec.)
COc1cc(OCc2ccc(C(F)(F)F)nc2)ccc1-c1nc(-c2ccc(Cl)cn2)[nH]c1Cl [Example 228] | – | 9.7 µg/mL (≈ 19.6 µM) | 2.6 µg/mL (≈ 5.25 µM) | – | – | – | 193 to 196 °C
COc1cc(OC(C)c2ccc(C(F)(F)F)cc2)ccc1-c1[nH]c(-c2ccc(F)nc2)nc1Cl (stereo not shown) [Example 236] | – | < 0.3 µg/mL | 29.9 µg/mL (≈ 60.8 µM) | – | – | – | 137 to 146 °C
COc1cc(OC(C)c2ccc(C(F)(F)F)cn2)ccc1-c1[nH]c(-c2ccc(F)nc2)nc1Cl (stereo not shown) [Example 240] | – | – | – | – | 12 µg/mL (≈ 24.3 µM) | <0.4 µg/mL | 165 to 168 °C
COc1cc(OCc2ncc(C(F)(F)F)cc2F)ccc1-c1[nH]c(-c2ccc(Cl)nc2)nc1Cl [Example 245] | – | 90.2 µg/mL (≈ 176 µM) | 11.7 µg/mL (≈ 22.8 µM) | – | – | – | 116 to 131 °C
COc1cc(OCc2ncc(F)cc2F)ccc1-c1[nH]c(-c2ccc(Cl)nc2)nc1Br [Example 246] | – | 15.6 µg/mL (≈ 30.7 µM) | 5 µg/mL (≈ 9.85 µM) | – | – | – | 190 to 193 °C
COc1cc(OCc2ncccc2C(F)(F)F)ccc1-c1[nH]c(-c2ccc(F)nc2)nc1Br [Example 275] | – | 96 µg/mL (≈ 183 µM) | 4.2 µg/mL (≈ 8.03 µM) | – | – | – | 144 to 154 °C
COc1cc(O[C@@H](C)c2ccc(C(F)(F)F)cc2)ccc1-c1[nH]c(-c2ccc(F)nc2)nc1Cl [Example 288] | – | < 0.3 µg/mL | 23.4 µg/mL (≈ 47.6 µM) | – | – | – | 137 to 139 °C
